Measurements from publication PMC12349723, “Computationally accelerated identification of P-glycoprotein inhibitors” (PLOS One, 2025).
Entries after “also recorded” stand apart in the source; their conditions may differ.

The compounds below were run on HFL1 (human lung fibroblast) cell line (assay: MTT viability assay, inherent toxicity in non-cancerous HFL1 cells). Settings: 15 µM compound, 48 h, MTT; 20% reduction in viability = maximum acceptable toxicity.
Type: cell-based
Design: Mean % Survival: tested at 15 µM
Description: The chemotherapeutic sensitive DU145 human prostate cancer cells and the multidrug resistant sub-line, DU145-TXR, were generous gifts from Dr. Evan Keller (University of Michigan, Ann Arbor, MI). The MDR, P-gp overexpressing DU145-TXR cells were maintained under positive selection pressure by supplementing complete medium with 10 nM paclitaxel (Acros Organics, NJ). […] The MDR, P-gp overexpressing A2780-ADR cell line was maintained under positive selection pressure by supplementing complete medium with 100 nM doxorubicin (Fisher Scientific, NJ). The non-cancerous HFL1 (human lung fibroblast) cell line cell line was a generous gift from Dr. Robert Harrod (Southern Methodist University, Dallas, TX) and was maintained in complete F12K media consisting of F12K with 10% fetal bovine serum, 100 U/mL penicillin, and 100 µg/mL streptomycin (Gibco). Flasks and 96 well plates that were used with the non-cancerous line HFL1 were pre-treated with 0.1 mg/ml Collagen Type 1 (Gibco) and rinsed with PBS (Fisher).
MTT assays measure the reduction of yellow, water soluble 3-(4,5-dimethylthiazol-2-yl)-2,5-diphenyltetrazolium bromide (MTT) to blue, insoluble formazan crystals by cellular reductase processes in living cells. Cells were trypsinized from monolayers and seeded in complete medium in 96 well plates. Cancerous cell lines (DU145, DU145-TXR, A2780, A2780-ADR) were seeded at 3,000 cells per well in complete RPMI medium. The non-cancerous HFL1 line was seeded at 4,000 cells per well in complete F12K medium, in collagen-treated plates (Collagen Type 1, Gibco). Cells were incubated with experimental compounds for 48 hours at 37 °C and 5% CO2 in a humidified incubator. At 48 hours, MTT was added (20 µL/well of 5 mg/mL MTT in PBS) to each well. After incubation for 4 hours, the media was removed, and the formazan crystals were dissolved in 100 µL DMSO per well. Plates containing the semi-adherent A2780 or A2780-ADR lines were spun at 1400 rpm for 3 minutes prior to aspiration of media, and the addition of DMSO. Plates were shaken for 10 minutes at 500 rpm on an Orbital shaker (LabDoctor from MidSci, St Louis, MO). The absorbance was measured at 570 nm using a Bio-Tek Cytation 5 (Bio-Tek, Winooski, VT). The measured absorbance value was correlated with the number of metabolically active cells in that well, corrected for absorbance of media. The percent of cell viability (termed ‘survival’ here) was calculated as a percentage of survival of the control condition, which refers to vehicle-treated (DMSO as vehicle) cells, or vehicle-and-chemotherapeutic-treated cells, if testing a compound’s ability to re-sensitize cells to a chemotherapeutic. Percent survival was calculated using the following equation:
% Survival=100 × absorbance of experimental cells/mean absorbance of control treated cells
For DU145-TXR, DU145, HFL1 and A2780 cells – data are the mean ± one standard deviation, 8 samples per compound, from at least two independent trials per compound. […] For A2780-ADR cells, data are the mean ± one standard deviation with 12 samples per compound, from at least two independent trials per compound.
If a P-gp inhibitor is intrinsically toxic to non-cancerous cells, it is more likely to be participating in undesirable off-target interactions. The top compounds from the screens shown above were screened for inherent toxicity using the non-cancerous HFL1 (human lung fibroblast) cell line. HFL1 cells were incubated with 15 µM compound for 48 hours, after which cell viability was assessed using MTT cell viability assays. A 20% reduction in cell viability (compared to DMSO-treated cells) was considered the maximum acceptable toxicity (see dotted line). The chemotherapeutic daunorubicin was included as a positive control for toxicity.
The top compounds from previous screens were tested against the non-cancerous HFL1 cell line.

Structure (SMILES)	Inherent toxicity to non-cancerous HFL1 cells
Cc1ccc(-c2noc(-c3cn(Cc4ccc(NS(=O)(=O)c5ccccc5F)cc4)cn3)n2)cc1 [Compound 103, Cc1ccc(cc1)-c1noc(n1)-c1cn(Cc2ccc(NS(=O)(=O)c3ccccc3F)cc2)cn1]	either ‘non-toxic’ or ‘within acceptable limits’ of toxicity
Cc1onc(-c2ccccc2)c1-c1nnc(Cn2cnc3ccccc3c2=O)o1 [Compound 111, Cc1onc(c1-c1nnc(Cn2cnc3ccccc3c2=O)o1)-c1ccccc1]	either ‘non-toxic’ or ‘within acceptable limits’ of toxicity
Cc1onc(-c2ccccc2)c1-c1nnc(Cn2cnc3c(oc4ccccc43)c2=O)o1 [Compound 78, Cc1onc(c1-c1nnc(Cn2cnc3c4ccccc4oc3c2=O)o1)-c1ccccc1]	either ‘non-toxic’ or ‘within acceptable limits’ of toxicity
O=C(c1nc(-c2ccccn2)no1)N1CCN(c2nsc3ccccc23)CC1 [Compound 124, O=C(N1CCN(CC1)c1nsc2ccccc12)c1nc(no1)-c1ccccn1]	either ‘non-toxic’ or ‘within acceptable limits’ of toxicity

Same assay, conditions: HFL1 cells, compound alone, mean of 8 samples

Structure (SMILES)	Mean % Survival
Cc1ccc(-c2noc(-c3cn(Cc4ccc(NS(=O)(=O)c5ccccc5F)cc4)cn3)n2)cc1 [Compound 103, Cc1ccc(cc1)-c1noc(n1)-c1cn(Cc2ccc(NS(=O)(=O)c3ccccc3F)cc2)cn1]	93.4%
Cc1onc(-c2ccccc2)c1-c1nnc(Cn2cnc3ccccc3c2=O)o1 [Compound 111, Cc1onc(c1-c1nnc(Cn2cnc3ccccc3c2=O)o1)-c1ccccc1]	96.0%
Cc1onc(-c2ccccc2)c1-c1nnc(Cn2cnc3c(oc4ccccc43)c2=O)o1 [Compound 78, Cc1onc(c1-c1nnc(Cn2cnc3c4ccccc4oc3c2=O)o1)-c1ccccc1]	99.6%
O=C(c1nc(-c2ccccn2)no1)N1CCN(c2nsc3ccccc23)CC1 [Compound 124, O=C(N1CCN(CC1)c1nsc2ccccc12)c1nc(no1)-c1ccccn1]	84.6%

Same assay, conditions: HFL1 cells, compound alone, single samples (trials 1-2, samples 1-4)

Structure (SMILES)	% Survival (individual sample)
Cc1onc(-c2ccccc2)c1-c1nnc(Cn2cnc3ccccc3c2=O)o1 [Compound 111, Cc1onc(c1-c1nnc(Cn2cnc3ccccc3c2=O)o1)-c1ccccc1]	92%
Cc1onc(-c2ccccc2)c1-c1nnc(Cn2cnc3c(oc4ccccc43)c2=O)o1 [Compound 78, Cc1onc(c1-c1nnc(Cn2cnc3c4ccccc4oc3c2=O)o1)-c1ccccc1]	102%
O=C(c1nc(-c2ccccn2)no1)N1CCN(c2nsc3ccccc23)CC1 [Compound 124, O=C(N1CCN(CC1)c1nsc2ccccc12)c1nc(no1)-c1ccccn1]	89%

What follows are compounds tested against T1, P-gp (Homo sapiens, UniProt P08183) (assay: Daunorubicin accumulation (fluorescence) assay in DU145-TXR cells). Settings: DU145-TXR, 10 µM compound + 10 µM DAU, 2 h.
T1 construct: The MDR, P-gp overexpressing DU145-TXR cells were maintained under positive selection pressure; endogenous in cells; host or cells: DU145-TXR (paclitaxel-resistant sub-line of DU145 human prostate cancer cells)
T1 sequence (P08183 whole entry): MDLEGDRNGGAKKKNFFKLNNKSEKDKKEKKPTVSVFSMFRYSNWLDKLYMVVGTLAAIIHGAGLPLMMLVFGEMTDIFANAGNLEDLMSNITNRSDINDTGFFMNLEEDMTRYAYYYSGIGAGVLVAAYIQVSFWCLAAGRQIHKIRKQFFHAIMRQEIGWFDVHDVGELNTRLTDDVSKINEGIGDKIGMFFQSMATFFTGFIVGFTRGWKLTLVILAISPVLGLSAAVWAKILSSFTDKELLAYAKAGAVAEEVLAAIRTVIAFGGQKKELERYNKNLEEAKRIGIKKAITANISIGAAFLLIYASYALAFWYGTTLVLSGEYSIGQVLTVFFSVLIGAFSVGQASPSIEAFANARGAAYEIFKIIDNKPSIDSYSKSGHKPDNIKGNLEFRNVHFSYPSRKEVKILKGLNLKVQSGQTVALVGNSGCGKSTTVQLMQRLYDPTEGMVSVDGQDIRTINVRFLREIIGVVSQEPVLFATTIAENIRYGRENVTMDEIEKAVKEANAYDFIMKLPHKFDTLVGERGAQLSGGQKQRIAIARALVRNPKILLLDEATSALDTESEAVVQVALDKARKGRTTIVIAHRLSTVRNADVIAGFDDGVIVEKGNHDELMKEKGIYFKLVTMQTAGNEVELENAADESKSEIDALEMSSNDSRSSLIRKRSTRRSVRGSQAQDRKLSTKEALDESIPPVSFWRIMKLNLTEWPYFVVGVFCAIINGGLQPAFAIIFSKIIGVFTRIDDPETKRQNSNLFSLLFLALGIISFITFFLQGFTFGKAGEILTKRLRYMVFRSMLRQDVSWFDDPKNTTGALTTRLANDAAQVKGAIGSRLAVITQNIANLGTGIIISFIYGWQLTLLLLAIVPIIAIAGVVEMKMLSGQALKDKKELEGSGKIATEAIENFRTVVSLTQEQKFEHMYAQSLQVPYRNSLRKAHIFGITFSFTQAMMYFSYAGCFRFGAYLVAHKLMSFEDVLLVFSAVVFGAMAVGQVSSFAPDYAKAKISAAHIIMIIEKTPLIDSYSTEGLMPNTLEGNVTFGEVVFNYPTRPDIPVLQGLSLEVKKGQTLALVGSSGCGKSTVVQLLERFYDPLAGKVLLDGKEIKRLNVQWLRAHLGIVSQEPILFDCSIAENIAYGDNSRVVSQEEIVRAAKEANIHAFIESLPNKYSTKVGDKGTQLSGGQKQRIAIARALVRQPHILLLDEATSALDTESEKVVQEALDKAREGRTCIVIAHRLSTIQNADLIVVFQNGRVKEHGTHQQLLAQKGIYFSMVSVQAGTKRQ
Type: cell-based
Description: These assays are based upon those reported in [9]. DU145-TXR cells were seeded in 96 well plates in complete RPMI medium at 15,000 cells per well. Cells were allowed to grow for 48 hours in a humidified incubator at 37 °C and 5% CO2. After 48 hours, media was replaced with fresh complete RPMI medium. Cells were treated with 10 µM of experimental compound with or without 10 µM daunorubicin (DAU). After a 2-hour incubation at 37 °C and 5% CO2 in a humidified incubator, media was removed with a vacuum aspirator, and cells were washed twice with ice-cold phosphate buffered saline (PBS) solution. Cells were lysed in PBS containing 0.5% SDS and 0.5% Triton X-100 and shaken on an Orbital Shaker for 10 min at 500 rpm. […] Data are the mean ± one standard deviation from three independent experiments, 3 samples per experiment. Statistical significance was determined with a Student’s T test in GraphPad prism.
Δ DAU Fluorescence= Fluorescence of (Compound+DAU) treated cells/Fluorescence of DAU treated cells
These assays used the P-gp highly overexpressing DU145-TXR cell line. In this assay, the intrinsic fluorescence of DAU was used to quantify its relative concentration in the cell. An increase in fluorescence correlates with an increase in the intracellular accumulation of DAU. […] Cells were treated with 10 µM of experimental compound with or without 10 µM DAU. After a 2-hour incubation, cells were washed and lysed, and the total fluorescence of DAU in each well was quantified.
Fig 5 Change in fluorescence of DAU in the presence of experimental compounds. Fold change in fluorescence of the P-gp substrate Daunorubicin (DAU) in the presence or absence of experimental compounds or known P-gp modulators. Cells were treated with 10 µM compound in the presence or absence of 10 µM DAU. After washing and lysing the cells, the intracellular DAU fluorescence was measured and expressed as a fold change relative to the fluorescence of DU145-TXR cells treated with DAU alone. […] Three samples per trial, three independent trials. Significance was determined using a Student’s T test of the mean by comparing fluorescence of DAU and compound to that of DAU alone; P > 0.05 = N.S., P < 0.05 = *, P < 0.01 = **, P < 0.001 = ***, P < 0.0001 = ****. Data also shown in S4 Fig.

Structure (SMILES)	Effect on DAU fluorescence / intracellular DAU retention
Cc1onc(-c2ccccc2)c1-c1nnc(Cn2cnc3ccccc3c2=O)o1 [Compound 111, Cc1onc(c1-c1nnc(Cn2cnc3ccccc3c2=O)o1)-c1ccccc1]	did not cause an increase in intracellular DAU retention
Cc1onc(-c2ccccc2)c1-c1nnc(Cn2cnc3c(oc4ccccc43)c2=O)o1 [Compound 78, Cc1onc(c1-c1nnc(Cn2cnc3c4ccccc4oc3c2=O)o1)-c1ccccc1]	significant decrease in fluorescence; also recorded: did not cause an increase in intracellular DAU retention

Same assay, conditions: Student's T test of the mean

Structure (SMILES)	Significance (DAU + compound vs DAU alone)
Cc1ccc(-c2noc(-c3cn(Cc4ccc(NS(=O)(=O)c5ccccc5F)cc4)cn3)n2)cc1 [Compound 103, Cc1ccc(cc1)-c1noc(n1)-c1cn(Cc2ccc(NS(=O)(=O)c3ccccc3F)cc2)cn1]	** (P < 0.01 = **)
Cn1cnnc1SCc1c(C(=O)O)nnn1-c1nonc1N [Compound 59, Cn1cnnc1SCc1c(nnn1-c1nonc1N)C(O)=O]	N.S. (P > 0.05 = N.S.)

Now from value to compound:

Significance (DAU + compound vs DAU alone)	Structure (SMILES)
**** (P < 0.0001 = ****)	COc1cc2c(cc1OC)CN(CCc1ccc(NC(=O)c3cc(OC)c(OC)cc3NC(=O)c3cnc4ccccc4c3)cc1)CC2 [Tariquidar, reference compound]
N.S. (P > 0.05 = N.S.)	Cc1onc(-c2ccccc2)c1-c1nnc(Cn2cnc3ccccc3c2=O)o1 [Compound 111, Cc1onc(c1-c1nnc(Cn2cnc3ccccc3c2=O)o1)-c1ccccc1]
* (P < 0.05 = *)	Cc1onc(-c2ccccc2)c1-c1nnc(Cn2cnc3c(oc4ccccc43)c2=O)o1 [Compound 78, Cc1onc(c1-c1nnc(Cn2cnc3c4ccccc4oc3c2=O)o1)-c1ccccc1]
